Laboratory results as given in patent publication US20170196296A1, “Amphoteric Metal Compound-Treated Substrate And Methods For Reduction Of Body Odor Using Treated Substrates” (priority 2016, published 2017).

Assay: solubility of copper hydroxide in ammonia solutions
Assay type: physicochemical
Description: If the substrate is desirably a keratin-based material, then the substrate is selected from materials such as wool or hair (such as alpaca hair), and the AMH compound is preferably copper hydroxide (Cu[OH]2), which can be dissolved in an ammonia solution, resulting in an aqua ammonia solution of Schweizer's reagent, Cu[NH3]4[H2O]2][OH]2. […] Standard aqua ammonia (25%) saturates at only about 3% copper hydroxide W/W, and the concentrated ammonia solution is hazardous to breathe. However, the ammonia in the aqua ammonia+copper hydroxide solution can be mostly substituted with harmless ingredients. For example, a wool substrate can be soaked in an aqueous solution which is composed of only 3% ammonia, 4% W/W of ammonium chloride and 10% W/W of sodium carbonate will also dissolve 3% copper hydroxide, and after drying, the ammonium chloride and sodium carbonate can be rinsed away. A wool substrate thus treated will retain as much copper hydroxide as a substrate treated in solution of 3% copper hydroxide (saturated solution) in aqua ammonia (25% ammonia). Upon being soaked in either formula of 3% copper hydroxide solution, the surface of the wool immediately absorbs the copper hydroxide. Excess solution is squeezed out of the substrate material, and the substrate is allowed to dry. […]

amount dissolved in aqueous ammonia/ammonium chloride/sodium carbonate solution (3% ammonia, 4% W/W ammonium chloride, 10% W/W sodium carbonate): 3%
saturation concentration in standard aqua ammonia (aqua ammonia (25%)): about 3 % W/W
Structure (SMILES): [OH][Cu][OH] [Cu(OH)2, copper(ii) hydroxide]
